Consider 4 compounds from PMC10746112, “Synthesis and Pro-Apoptotic Effects of Nitrovinylanthracenes and Related Compounds in Chronic Lymphocytic Leukaemia (CLL) and Burkitt’s Lymphoma (BL)” (Molecules, 2023).

“And” between values parts separate entries of the source, which are not always exact repeats. Identical values can stand only once. Like-named read-outs stand apart in the source and are kept apart here.

For data set [1], the system named is MUTU-1 cells. Details: method as in earlier work. The settings on record: nitrostyrenes and taxol, MTT assay, reported data; cited from earlier work. In general terms: Tetrazolium assays rely on reduction of a dye to a coloured formazan, in cell work by metabolically active cells.
Data set [2] has as its system DG-75 cells. On the set-up: method as in earlier work. Conditions: nitrostyrenes and taxol, MTT assay, reported data; cited from earlier work.
Data set [3] deals with DG-75 Burkitt’s lymphoma cell line. Conditions: cited from earlier work.
For data set [4], the system named is HeLa cervical cancer cells. Nature of the data set: alamarBlue cell viability assay. Conditions: Homo sapiens, 24 h; for viability at 1 µM: read-out: % Viable Cells Remaining HeLa 24 h 1 µM; for viability at 10 µM: read-out: % Viable Cells Remaining HeLa 24 h 10 µM. In general terms: Alamar Blue is a resazurin reagent that responds to reducing activity.
The subject of data set [5] is MCF-7 human breast cancer cells. Briefly: alamarBlue cell viability assay. The settings on record: MCF7, 72 h; for viability at 1 µM: read-out: % Viable Cells Remaining MCF-7 72 h 1 µM; for viability at 10 µM: read-out: % Viable Cells Remaining MCF-7 72 h 10 µM.
The test system of data set [6] is DG-75 BL cells. Briefly: Annexin V/PI apoptotic assay (FACS). It counts as cell-based. The settings on record: 48 h. The method, then: (§1) The chemotherapeutic drug taxol was used as a positive control. The pro-apoptotic effects of the selected nitrostyrene compounds 11g, 11h, 11i, 11j, 11k and 11l (10 μM) were determined using FITC (fluorescein isothiocyanate), Annexin V/PI (propidium iodide) staining and FACS (fluorescence-activated cell sorting) analysis to characterise the mode of cellular death induced by the synthesised compounds. Four populations were produced in this assay: Annexin-V- and PI-negative (Q4, healthy cells), Annexin-V-positive and PI-negative (Q3, early apoptosis), Annexin-V- and PI-positive (Q2, late apoptosis) and Annexin-V-negative and PI-positive (Q1, necrosis), which were easily identified and quantified. Apoptosis was assessed as % total apoptosis by a combination of early and late apoptosis (Q3 and Q2, respectively). […] The identification of compounds that can induce apoptosis in cancer cells is required in the development of potential lead structures for anticancer drugs.
(§2) The BL cells DG-75 and MUTU-I (750,000) were treated at 37 °C with either vehicle (0.1% (v/v) EtOH), […] taxol (10 μM) and incubated for 24 h (MUTU-1) or 48 h (DG-75). The CLL cells PGA1 and HG3 (1 × 10^6 cells/mL) were treated at 37 °C with either vehicle (1% (v/v) DMSO) or the nitrostyrene compounds 19a (10 μM, 5 μM and 1 μM) and 19g, 19i, 19l and 19m (10 μM and 1 μM) for 48 h. The cells were then harvested by centrifugation at 400× g in a temperature-controlled Sorvall centrifuge and rinsed with 0.5 mL of Ca^2+ Annexin-V-binding buffer (0.1 M HEPES, pH 7.4; 0.14 M NaCl; 25 mM CaCl2). The samples were resuspended in 50 µL FITC Annexin V (diluted 1:33 in Ca^2+ Annexin V-binding buffer), incubated on ice for 10 min (protected from light), washed with Annexin-V-binding buffer and re-suspended in 500 µL of propidium iodide (PI) solution (0.5 µg/mL). The samples were analysed within 1 h using a BD Accuri C6 flow cytometer counting 10,000 cells and analysed using the FlowJo software (FlowJo LLC, Ashland, OR, USA) package.

Data set [7] deals with MUTU-I BL cells. Nature of the data set: Annexin V/PI apoptotic assay (FACS). It counts as cell-based. Conditions: 24 h. The method, then: as §1, §2
Data set [8] relates to HL-60 promyelocytic leukaemia cells. Nature of the data set: alamarBlue cell viability assay. Conditions: Homo sapiens, HL-60, 24 h; for viability at 1 µM: read-out: % Viable Cells Remaining HL60 24 h 1 µM; for viability at 10 µM: read-out: % Viable Cells Remaining HL60 24 h 10 µM.
The subject of data set [9] is Ramos BL cell line. Nature of the data set: alamarBlue cell viability assay. It counts as cell-based. Conditions: Homo sapiens, 24 h; for viability at 1 µM: read-out: % Viable Cells Remaining Ramos 24 h 1 µM; for viability at 10 µM: read-out: % Viable Cells Remaining Ramos 24 h 10 µM. The method, then:
(§3) Cells were seeded at a density of 2.5 × 10^4 cells/well (MCF-7, MDA-MB-231 cells), 1 × 10^4 cells/well (HL-60 cells), 1–5 × 10^4 cells per well (BL MUTU-I, DG-75 cells) and 2 × 10^5 cells/well [HG-3, PGA-1 (CLL cells)], Ramos, BJAB (BL cells) (200 μL per well), in 96-well plates. Cells were treated with the desired drug concentration for the appropriate time for each cell type, and the samples were incubated as required. alamarBlue (20 μL) was then added to each well and the samples further incubated in the dark at 37 °C for 4 h. Wells containing only reagent and cell culture medium in the absence of cells were used as blank controls. Ethanol was used as a vehicle, and cells were treated with 1% ethanol (v/v) in all experiments. The 96-well plates were analysed on a fluorescence plate reader (SpectraMax Gemini, Molecular Devices) (emission and excitement wavelengths of 590 nm and 544 nm, respectively), and the fluorescence was recorded. The decrease in cell viability was then calculated with reference to the vehicle samples (100% viability). EMEM medium with the addition of alamarBlue was used as a blank. Vehicle-treated cells were considered to be 100% viable, and the viabilities of each compound was calculated accordingly. […] All biochemical assays were performed in triplicate on at least three independent occasions, and the mean values were determined.

In data set [10] the test system is Bjab BL cell line. Nature of the data set: alamarBlue cell viability assay. The settings on record: Homo sapiens, 24 h; for viability at 1 µM: read-out: % Viable Cells Remaining Bjab 24 h 1 µM; for viability at 10 µM: read-out: % Viable Cells Remaining Bjab 24 h 10 µM. It counts as cell-based. The method, then: as §3
Data set [11] relates to MUTU-I Burkitt’s lymphoma cell line. Conditions: cited from earlier work; for % Viable Cells Remaining MUTU-1 24 h 1 µM / % Viable Cells Remaining MUTU-1 24 h 10 µM: nitrostyrenes.
The test system of data set [12] is DG-75 Burkitt’s lymphoma cell line. Nature of the data set: alamarBlue cell viability assay. Conditions: Homo sapiens, DG-75, 48 h.
The test system of data set [13] is MUTU-I Burkitt’s lymphoma cell line. Briefly: alamarBlue cell viability assay. The settings on record: MUTU-I, 24 h.
In data set [14] the test system is DG-75 Burkitt’s lymphoma cell line. The settings on record: human, 48 h, 1 µM.
The test system of data set [15] is HG-3 CLL cell line. Nature of the data set: alamarBlue cell viability assay. The settings on record: CLL cell, 24 h, read-out: % Viability HG-3, 10 µM, 24 h.
Data set [16] relates to PGA-1 CLL cell line. Briefly: alamarBlue cell viability assay. Conditions: 24 h.
Where [17] appears, read: 10 µM, total (early + late) apoptosis.

The term IC50 denotes the midpoint of a concentration-inhibition curve. Consider `C/C(=C\c1ccccc1Cl)[N+](=O)[O-]` [Compound 11g], for which the half-maximal inhibitory concentration (IC50) in data set [1] was 0.82 µM; in data set [2] it was 2.75 µM. The “% Viable Cells Remaining DG-75 48 h 1 µM” value in data set [3] (nitrostyrenes, 1 µM, 48 h) was 75.86%. For the same compound, in [3] (nitrostyrenes, 48 h), the “% Viable Cells Remaining DG-75 48 h 10 µM” value was −0.08%. Further, the viability at 1 µM in data set [4] came to 87.1%; in data set [5], 81.4%; in data set [8], 73.4%; in data set [9], 53.4%; in data set [10] it was 82.2%. The viability at 10 µM in [4] was determined as 34.2%; in data set [5], 41.7%; in [8], 16.5%; in data set [9] it was 7.7%; in data set [10], 51.9%. Further, the “DG-75 Apoptosis (%)” value in data set [6] (setting [17]) is recorded as 70.6%. The “MUTU-I Apoptosis (%)” value in data set [7] (setting [17]) is 80.9%. Also, in [11], the “% Viable Cells Remaining MUTU-1 24 h 1 µM” value was 44.16%. Besides, the “% Viable Cells Remaining MUTU-1 24 h 10 µM” value in data set [11] is reported as 14.91%.

For the compound `C/C(=C\c1ccc(Cl)cc1)[N+](=O)[O-]` [Compound 11i], the results for the IC50 in data set [1] and in [2] were 1.3 µM and 2.75 µM, respectively. The “% Viable Cells Remaining DG-75 48 h 1 µM” value in [3] (nitrostyrenes, 1 µM, 48 h) is 88.76%. Also, the “% Viable Cells Remaining DG-75 48 h 10 µM” value in [3] (nitrostyrenes, 48 h) was 0.72%. Besides, the viability at 1 µM in data set [4] was found to be 93%; in data set [5], 103%; in data set [8] it was 104%; in data set [9], 62.6%; in data set [10], 100%. Also, the viability at 10 µM turned out to be 17.7% in data set [4]; 37.1% in [5]; 6.5% in [8]; 13.9% in data set [9]; 50.8% in data set [10]. For the same compound, the “DG-75 Apoptosis (%)” value in data set [6] (setting [17]) came to 86.4%. The “MUTU-I Apoptosis (%)” value in data set [7] (setting [17]) was 84.5%. Moreover, the “% Viable Cells Remaining MUTU-1 24 h 1 µM” value in data set [11] is listed as 67.22%. The “% Viable Cells Remaining MUTU-1 24 h 10 µM” value in [11] was 10.53%.

With `CC(=O)O[C@H]1C(=O)[C@@]2(C)[C@H]([C@H](OC(=O)c3ccccc3)[C@]3(O)C[C@H](OC(=O)[C@H](O)[C@@H](NC(=O)c4ccccc4)c4ccccc4)C(C)=C1C3(C)C)[C@]1(OC(C)=O)CO[C@@H]1C[C@@H]2O` [Taxol, taxol, reference compound], the IC50 in data set [1] is 0.3 µM; in data set [2] it was 1.32 µM; in [3] (read-out: IC50 DG-75, previous work), 1.32 µM; in data set [11] (read-out: IC50 MUTU-I, previous work), 0.32 µM. Moreover, the viability at 1 µM was > 90% in data set [12] (read-out: % Viable Cells Remaining DG-75, 1 µM, 48 h); 86.9% in data set [4]; 32% in [13] (read-out: % Viable Cells Remaining MUTU-1, 1 µM, 24 h); 101% in [5]; 97.6% in data set [8]; 69.3% in data set [9]. In [10], the viability at 1 µM is 97.6%. In addition, the viability at 10 µM in [12] (read-out: % Viable Cells Remaining DG-75, 10 µM, 48 h) was determined as 40%; in data set [4], 48.4%; in data set [13] (read-out: % Viable Cells Remaining MUTU-1, 10 µM, 24 h), 7%; in data set [5] it was 75%; in [8], 69.7%; in data set [9], 24.9%. Moreover, in data set [10], the viability at 10 µM came out at 80.2%. Further, the “% Viable Cells Remaining DG-75 48 h 1 µM” value in data set [3] is recorded as >90%. In addition, the “DG-75 Apoptosis (%)” value in [6] (1 µM) is on record as 20.7%; in [6] (setting [17]) it was 72.8%. Besides, the “MUTU-I Apoptosis (%)” value in data set [7] (1 µM) is on record as 62.8%; in data set [7] (setting [17]) it was 87.3%; in [7] (10 µM, total (early + late) apoptosis, listed as taxol) it was 87%. Moreover, in data set [14], the “% Viable Cells Remaining DG-75” value came to 90.0%.

On to `CC/C(=C\c1ccccc1Cl)[N+](=O)[O-]` [Compound 11j, (E)-1-Chloro-2-(2-nitrobut-1-en-1-yl)benzene], for which the viability at 10 µM was 5.61% in data set [15]; 21.8% in [4]; 20.7% in [5]; 0.43% in data set [16] (CLL cell, read-out: % Viability PGA-1, 10 µM, 24 h); 9.1% in data set [8]; 4.4% in [9]. Also, in [10], the viability at 10 µM came out at 68.9%. Also, the IC50 in data set [1] was 2.18 µM; in data set [2], 2.05 µM. Moreover, the “% Viable Cells Remaining DG-75 48 h 1 µM” value in data set [3] (nitrostyrenes, 1 µM, 48 h) is 79.77%. Besides, in data set [3] (nitrostyrenes, 48 h), the “% Viable Cells Remaining DG-75 48 h 10 µM” value is given as 15.89%. Further, the viability at 1 µM was 95.3% in [4]; 98.1% in data set [5]; 6.31% in data set [16] (CLL cell, read-out: % Viability PGA-1, 1 µM, 24 h); 99.8% in data set [8]; 66.9% in [9]; 102% in data set [10]. The “DG-75 Apoptosis (%)” value in data set [6] (setting [17]) was 72.3%. The “MUTU-I Apoptosis (%)” value in data set [7] (setting [17]) came out at 88.3%. Also, the “% Viability PGA-1” value in data set [16] (10 µM) is 0.53%. Also, the “% Viable Cells Remaining MUTU-1 24 h 1 µM” value in data set [11] was 64.31%. Besides, the “% Viable Cells Remaining MUTU-1 24 h 10 µM” value in data set [11] is 10.3% and 10.27%.
